In patent US20170166555A1, “FUNCTIONALISED AND SUBSTITUTED INDOLES AS ANTI-CANCER AGENTS” (Novogen Limited, priority 2013, published 2017):
Where two headings read alike, the source gives them in different places.

Tests used:
Test in all cases: Anti-proliferative assay, cell-titre luminescent reagent, 72 h (GVK-BIO)
Type in all cases: cell-based
[1] = system: PC3 prostate cancer cells
Protocol: (§1) The ability of compounds 4001, 4002, 4008, 4010, 4011, 4013-4015, 4018, 4026, 4045-4113 and 4115-4127 to inhibit the proliferation of cancer cells representative of neuroblastoma, melanoma, prostate cancer, colorectal cancer, non-small cell lung carcinoma, and triple negative breast cancer was assessed. These studies were conducted by contract research (GVK-BIO). Briefly, a pre-determined number of cells as calculated from cell growth assays for each of the cell lines employed were seeded into their respective culture medium (using ATCC culture parameters—http://www.atcc.org) and cultured for 24 h at 37° C. and 5% CO2 in 96-well culture plates. Once attached, each cell line was then exposed to various concentrations of each respective analogue (30, 3, 0.3 and 0.03 μM for compounds in Tables 2, 3 and 4; 30, 10, 3, 1, 0.3 and 0.1 μM for compounds in Table 5), cultured for a further 72 h and exposed to cell-titre luminescent reagent (100 μL/well) for a further 30 min). Luminescence was captured using an EnVision multilabel reader and the data for each analogue concentration compared against no treatment control. For compounds in Tables 2-4, semi-log plots of Percent of Control versus concentration were prepared and IC50 determined using linear regression analysis. For compounds in Table 5, cell viability was normalized to control (vehicle alone) and dose-response curves, and half maximal effective concentration (EC50) values were determined using Graph Pad Prism 6 (nonlinear regression sigmoidal dose-response variable slope).

[2] = system: A549 non-small cell lung carcinoma cells; conditions: Homo sapiens, read-out: IC50/μM Lung (NSLC) A549
Protocol: as §1

[3] = system: CaCo2 colorectal cancer cells
Protocol: as §1

[4] = system: SK-N-SH neuroblastoma cells; conditions: Homo sapiens
Protocol: as §1

SK-Mel-28 melanoma cells = conditions: Homo sapiens
Protocol: as §1

[5] = system: MDA-MB-231 triple negative breast cancer cells; conditions: Homo sapiens
Protocol: as §1

[6] = system: DU145 prostate cancer cells; conditions: Homo sapiens
Protocol: as §1

[7] = 30, 10, 3, 1, 0.3 and 0.1 μM, nonlinear regression (Table 5)
[8] = A549, 72 h, 30, 10, 3, 1, 0.3 and 0.1 μM, nonlinear regression (Table 5)
[9] = Homo sapiens, Caco-2, 72 h, 30, 10, 3, 1, 0.3 and 0.1 μM, nonlinear regression (Table 5)
[10] = SK-N-SH, 30, 10, 3, 1, 0.3 and 0.1 μM, nonlinear regression (Table 5)
[11] = SK-MEL-28, 72 h, 30, 10, 3, 1, 0.3 and 0.1 μM, nonlinear regression (Table 5)
[12] = MDA-MB-231, 72 h, 30, 10, 3, 1, 0.3 and 0.1 μM, nonlinear regression (Table 5)
[13] = DU-145, 72 h, 30, 10, 3, 1, 0.3 and 0.1 μM, nonlinear regression (Table 5)
[14] = 30, 3, 0.3 and 0.03 μM, linear regression (Tables 2-4)
[15] = A549, 72 h, 30, 3, 0.3 and 0.03 μM, linear regression (Tables 2-4)
[16] = SK-N-SH, 30, 3, 0.3 and 0.03 μM, linear regression (Tables 2-4)
[17] = SK-MEL-28, 72 h, 30, 3, 0.3 and 0.03 μM, linear regression (Tables 2-4)
[18] = MDA-MB-231, 72 h, 30, 3, 0.3 and 0.03 μM, linear regression (Tables 2-4)
[19] = DU-145, 72 h, 30, 3, 0.3 and 0.03 μM, linear regression (Tables 2-4)
[20] = Homo sapiens, Caco-2, 72 h, 30, 3, 0.3 and 0.03 μM, linear regression (Tables 2-4)

COc1cccc(NC(=O)c2cccc(Oc3ccc4c(c3)c(C)c(C)n4CCCN(C)C)c2)c1 [Compound 4065, 3-((1-(3-(dimethylamino)propyl)-2,3-dimethyl-1H-indol-5-yl)oxy)-N-(3-methoxyphenyl)benzamide]
IC50 [1, 7]: 6.5 µM | IC50 [2, 8]: 4.6 µM | IC50 [3, 9]: 6.5 µM | IC50 [4, 10]: 5.2 µM | IC50 (SK-Mel-28 melanoma cells; [11]): 5 µM | IC50 [5, 12]: 5 µM | IC50 [6, 13]: 4.2 µM

Cc1c(C)n(CCCN(C)C)c2ccc(Oc3cccc(C(=O)Nc4ccccc4)c3)cc12 [Compound 4066, 3-((1-(3-(dimethylamino)propyl)-2,3-dimethyl-1H-indol-5-yl)oxy)-N-phenylbenzamide]
IC50 [1, 7]: 10 µM | IC50 [2, 8]: 8.5 µM | IC50 [3, 9]: 14.8 µM | IC50 [4, 10]: 5.4 µM | IC50 (SK-Mel-28 melanoma cells; [11]): 4.9 µM | IC50 [5, 12]: 11.4 µM | IC50 [6, 13]: 6.9 µM

CN(C)CCCn1ccc2cc(Nc3cccc(C(=O)Nc4ccc(F)cc4)c3)ccc21 [Compound 4067, 3-((1-(3-(dimethylamino)propyl)-1H-indol-5-yl)amino)-N-(4-fluorophenyl)benzamide]
IC50 [1, 14]: 4.3 µM | IC50 [2, 15]: 4 µM | IC50 [3, 14]: 4.3 µM | IC50 [4, 16]: 3.3 µM | IC50 (SK-Mel-28 melanoma cells; [17]): 2.5 µM | IC50 [5, 18]: 3.8 µM | IC50 [6, 19]: 4.3 µM

COc1ccc(NC(=O)c2cccc(Nc3ccc4c(ccn4CCCN(C)C)c3)c2)cc1 [Compound 4068, 3-((1-(3-(dimethylamino)propyl)-1H-indol-5-yl)amino)-N-(4-methoxyphenyl)benzamide]
IC50 [1, 14]: 14.6 µM | IC50 [2, 15]: 2.9 µM | IC50 [3, 20]: > 30 µM | IC50 [4, 16]: 3.5 µM | IC50 (SK-Mel-28 melanoma cells; [17]): 2.7 µM | IC50 [5, 18]: 2.8 µM | IC50 [6, 19]: 5.4 µM

CN(C)CCCn1ccc2cc(Nc3cccc(C(=O)Nc4ccc5c(c4)OCO5)c3)ccc21 [Compound 4069, N-(benzo[d][1,3]dioxol-5-yl)-3-((1-(3-(dimethylamino)propyl)-1H-indol-5-yl)amino)benzamide]
IC50 [1, 14]: 9.9 µM | IC50 [2, 15]: 4.2 µM | IC50 [3, 20]: > 30 µM | IC50 [4, 16]: 3.4 µM | IC50 (SK-Mel-28 melanoma cells; [17]): 2.5 µM | IC50 [5, 18]: 4.2 µM | IC50 [6, 19]: 4.4 µM

CN(C)CCCn1ccc2cc(Nc3cccc(C(=O)Nc4cccc(F)c4)c3)ccc21 [Compound 4070, 3-((1-(3-(dimethylamino)propyl)-1H-indol-5-yl)amino)-N-(3-fluorophenyl)benzamide]
IC50 [1, 14]: 2.9 µM | IC50 [2, 15]: 2.3 µM | IC50 [3, 20]: 1.7 µM | IC50 [4, 16]: 2.2 µM | IC50 (SK-Mel-28 melanoma cells; [17]): 2.5 µM | IC50 [5, 18]: 1.7 µM | IC50 [6, 19]: 3.1 µM

COc1cccc(NC(=O)c2cccc(Nc3ccc4c(ccn4CCCN(C)C)c3)c2)c1 [Compound 4071]
IC50 [1, 14]: 7.6 µM | IC50 [2, 15]: 4 µM | IC50 [3, 20]: 12 µM | IC50 [4, 16]: 3.7 µM | IC50 (SK-Mel-28 melanoma cells; [17]): 4.9 µM | IC50 [5, 18]: 3.4 µM | IC50 [6, 19]: 4.7 µM

Cc1c(C)n(CCCN(C)C)c2ccc(Nc3cccc(C(=O)Nc4ccc(F)cc4)c3)cc12 [Compound 4072, 3-((1-(3-(dimethylamino)propyl)-2,3-dimethyl-1H-indol-5-yl)amino)-N-(4-fluorophenyl)benzamide]
IC50 [1, 14]: 3.8 µM | IC50 [2, 15]: 1.9 µM | IC50 [3, 20]: 2 µM | IC50 [4, 16]: 1.7 µM | IC50 (SK-Mel-28 melanoma cells; [17]): 3 µM | IC50 [5, 18]: 1.7 µM | IC50 [6, 19]: 2.9 µM

COc1ccc(NC(=O)c2cccc(Nc3ccc4c(c3)c(C)c(C)n4CCCN(C)C)c2)cc1 [Compound 4073, 3-((1-(3-(dimethylamino)propyl)-2,3-dimethyl-1H-indol-5-yl)amino)-N-(4-methoxyphenyl)benzamide]
IC50 [1, 14]: 4.2 µM | IC50 [2, 15]: 3.9 µM | IC50 [3, 20]: 2.8 µM | IC50 [4, 16]: 2.6 µM | IC50 (SK-Mel-28 melanoma cells; [17]): 3.1 µM | IC50 [5, 18]: 3.4 µM | IC50 [6, 19]: 4 µM

Cc1c(C)n(CCCN(C)C)c2ccc(Nc3cccc(C(=O)Nc4ccc5c(c4)OCO5)c3)cc12 [Compound 4074, N-(benzo[d][1,3]dioxol-5-yl)-3-((1-(3-(dimethylamino)propyl)-2,3-dimethyl-1H-indol-5-yl)amino)benzamide]
IC50 [1, 14]: 22.7 µM | IC50 [2, 15]: 2.5 µM | IC50 [3, 20]: 2.4 µM | IC50 [4, 16]: 1.3 µM | IC50 (SK-Mel-28 melanoma cells; [17]): 2.7 µM | IC50 [5, 18]: 1.5 µM | IC50 [6, 19]: 2.8 µM
